Measured values: the NIST ThermoML archive (doi:10.1021/acs.jced.8b00524)
Numbers after ± are expanded uncertainties.

Legend:
[1] = xn = mol fraction of the nth substance listed; conditions: 100 kPa, Liquid; for viscosity: Concentric cylinders viscometry; for mass density: Vibrating tube method
[2] = 100 kPa, Liquid; for viscosity: Concentric cylinders viscometry; for mass density: Vibrating tube method

CCCCOC(C)=O [butyl ethanoate] + CCCCCCCCCCO
[1], x1 = 1
Conditions | mass density [kg/m3] | viscosity [mPa·s]
293.15 K | 881.1 ± 10 | 0.732 ± 0.037
298.15 K | 876 ± 10 | 0.677 ± 0.034
303.15 K | 870.9 ± 10 | 0.628 ± 0.032
308.15 K | 865.7 ± 10 | 0.585 ± 0.03
313.15 K | 860.5 ± 10 | 0.546 ± 0.028
318.15 K | 855.3 ± 10 | 0.512 ± 0.026
323.15 K | 850.1 ± 10 | 0.485 ± 0.025

CCCCCCCCCO [nonan-1-ol]
[2]
Conditions | mass density [kg/m3] | viscosity [mPa·s]
293.15 K | 827.5 ± 10 | 11.41 ± 0.57
298.15 K | 824 ± 10 | 9.43 ± 0.47
303.15 K | 820.5 ± 10 | 7.86 ± 0.39
308.15 K | 817.1 ± 10 | 6.61 ± 0.33
313.15 K | 813.6 ± 10 | 5.59 ± 0.28
318.15 K | 810.1 ± 10 | 4.78 ± 0.24
323.15 K | 806.5 ± 10 | 4.1 ± 0.21

CCCCCCCCO [octan-1-ol]
[2]
Conditions | mass density [kg/m3] | viscosity [mPa·s]
293.15 K | 824.9 ± 10 | 9.13 ± 0.46
298.15 K | 821.4 ± 10 | 7.62 ± 0.38
303.15 K | 817.9 ± 10 | 6.41 ± 0.32
308.15 K | 814.4 ± 10 | 5.43 ± 0.27
313.15 K | 810.9 ± 10 | 4.63 ± 0.23
318.15 K | 807.3 ± 10 | 3.98 ± 0.2
323.15 K | 803.7 ± 10 | 3.44 ± 0.17

CCCCCCO [hexan-1-ol] + CCCCOC(C)=O
[1], x2 = 0
Conditions | mass density [kg/m3] | viscosity [mPa·s]
293.15 K | 818.7 ± 10 | 5.37 ± 0.27
298.15 K | 815.1 ± 10 | 4.58 ± 0.23
303.15 K | 811.5 ± 10 | 3.94 ± 0.2
308.15 K | 807.9 ± 10 | 3.4 ± 0.17
313.15 K | 804.2 ± 10 | 2.95 ± 0.15
318.15 K | 800.6 ± 10 | 2.58 ± 0.13
323.15 K | 796.8 ± 10 | 2.26 ± 0.11

CCCCOC(C)=O [butyl ethanoate] + CCCCCCCO
[1], x1 = 1
Conditions | mass density [kg/m3] | viscosity [mPa·s]
293.15 K | 881.1 ± 10 | 0.732 ± 0.037
298.15 K | 876 ± 10 | 0.677 ± 0.034
303.15 K | 870.9 ± 10 | 0.628 ± 0.032
308.15 K | 865.7 ± 10 | 0.585 ± 0.03
313.15 K | 860.5 ± 10 | 0.546 ± 0.028
318.15 K | 855.3 ± 10 | 0.512 ± 0.026
323.15 K | 850.1 ± 10 | 0.485 ± 0.025

CCCCCCCCCCO [decan-1-ol]
[2]
Conditions | mass density [kg/m3] | viscosity [mPa·s]
293.15 K | 829.5 ± 10 | 14.42 ± 0.72
298.15 K | 826.1 ± 10 | 11.8 ± 0.59
303.15 K | 822.7 ± 10 | 9.76 ± 0.49
308.15 K | 819.3 ± 10 | 8.14 ± 0.41
313.15 K | 815.8 ± 10 | 6.84 ± 0.34
318.15 K | 812.4 ± 10 | 5.8 ± 0.29
323.15 K | 808.9 ± 10 | 4.96 ± 0.25
